Consider one molecule from article PMC4727972, “Chronic unpredicted mild stress-induced depression alter saxagliptin pharmacokinetics and CYP450 activity in GK rats” (PeerJ, 2016).

On the set-up of series [1]: method as in Fura et al., 2009. The conditions noted are these: rats; ref Fura et al., 2009; cited from earlier work.
The next series deals with liver microsomal enzyme. As to the kind of experiment: Metabolism of Sax using liver microsomal enzyme in vitro. Format: in vitro ADME, GK rats. The settings on record: decreased from 0.50 mg/mL. As to the method:
The control and CUMS-induced rats were fasted for 12 h and killed by cervical dislocation before removal of the liver. The liver was excised, rinsed with ice-cold normal saline (0.9% NaCl, w/v), weighed for 1 g, and homogenized with 4.0 mL in a 0.05M Tris–HCl buffer (pH 7.4). The homogenate was centrifuged at 10,000 × g at 4 °C for 20 min, and the supernatant was further centrifuged at 105,000 × g at 4 °C for 60 min. The helvus sediment was reconstituted with 1.0 mL Tris–HCl buffer and stored at −80 °C for analysis.
The incubation mixtures (final volume: 500 µL) contained 1 mg/mL microsomal protein, 0.1 M phosphate buffer (PH = 7.4), 1 mM nicotinamide adenine dinucleotide phosphate (NADPH), probe drugs (1 mg/mL Phe, Ven, Nif). A total of 100 µL microsomal protein and 100 µL probe drugs were added with 250 µL phosphate buffer in a brown centrifuge tube, vortex-mixed for 1 min, and incubated at 37 °C water. After 5 min pre-incubation, the reactions were initiated by the addition of 50 µL NADPH. The incubations were performed at 37 °C for 20 min in a water bath and terminated by adding 1.4 mL cold ethyl acetate and 20 µL Lor (5 µg/mL). […]
It is well known that Sax is mainly metabolized by cytochrome 3A enzyme in the liver. […] Considering of the complicacy of metabolic system in vivo, we detected metabolism of Sax using liver microsomal enzyme in vitro with cocktails method. […]
(Liver microsomes are vesicles of endoplasmic reticulum, rich in cytochrome P450 enzymes.)

Series [2] is described as follows: Pharmacokinetics of Sax in plasma after oral 0.5 mg/kg (HPLC-MS/MS, noncompartmental analysis). The settings on record: for AUC(0-inf) / Cmax / Tmax / MRT last / half-life / Vd/F: plasma, po; for AUC(0-inf) / Cmax / Tmax / MRT last / half-life / Vd/F / CLz/F: n = 9, mean ± SD; for MRT last: read-out: MRT0−t; for half-life: read-out: T1/2z (converted); for Vd/F: read-out: Vz/F. The class given is in vivo, GK rats. As to the method:
All rats were fasted overnight but with free access to water. 0.5 mg/kg Sax (suspended in 5 g/L Carboxymethyl cellulose-Na) was given orally. Blood samples were collected by eye canthus at 0.17, 0.33, 0.5, 0.83, 1.17, 1.5, 2, 3, 5, 8 h. Then plasma samples were centrifuged to obtain plasma at 3,000 × g for 5 min. The samples were stored at −80 °C for analysis.
The Sax concentration was assayed by the HPLC-tandem mass spectrometry (MS/MS) method ([Gao et al., 2012]). A total of 100 µL plasma sample and 10 µL Sit (100 ng/mL) was added with 1.2 mL ethyl acetate in a centrifuge tube, vortex-mixed for 2 min and centrifuged at 10,000 × g for 3 min. The supernatant was evaporated to dry. The residue was re-dissolved with 100 µL methanol via vortex-mixed for 1 min and centrifuged at 16,000 × g for 1 min. 2.0 µL of the supernatant was injected into the HPLC-MS/MS system for analysis.
The HPLC equipped with a reverse-phase column was connected to a triple quadrupole tandem MS with an electrospray interface. The system consists of the LC system (Agilent 1260, Agilent, US) with a G1322A degasser, a G1318B auto-modifiable pump, a G1367E auto-sampler, a G1316A adjustable column temperature box, and the Agilent 6420 MS system. Chromatographic separation was achieved using a ZORBAX EP-C18 column (2.1 mm × 50 mm, 1.8 µm, Agilent). The mobile phase contained 35% methanol and 65% water (0.1% ammonium formate) with a flow rate 0.4 mL/min. The optimized conditions of MS were as follows: positive electrospray ionization (ESI^+) mode, capillary at 4,000 V, ion-spray gas temperature at 350 °C, gas flow rate at 11 L/min, and nebulizer at 15 psi. The parameters of Sax and Sit were as follows: fragmentary voltage at 110 V and 130 V, collision energy at 22 units and 18 units, respectively. The multiple-reaction monitoring mode was selected for quantifying of Sax and Sit, for which the precursor-to-product ion transitions were 316.1 → 179.9 and 407.9 → 234.9, respectively. The MassHunter Workstation software (Version B.06.00, Agilent) was used to collect and process data.
Statistical analysis and pharmacokinetics parameter analysis were performed with SPSS 16.0 (SPSS Inc., Chicago, IL, USA) and DAS 2.1 software (Drug and Statistics, Shanghai University of Traditional Chinese Medicine, Shanghai, China). Differences between the two groups were analyzed via independent-samples t Test. Data was expressed as mean ± standard deviation (SD). p < 0.05 was considered statistically significant.

The mark [3] stands for this setting: GK, rat, 0.5 mg/kg, control group (diabetic GK rats), 0.5 mg/kg oral.
[4] abbreviates: GK, rat, 0.5 mg/kg, depression group (CUMS-induced, GK rats), 0.5 mg/kg oral.
The mark [5] stands for this setting: depression group vs control group, 0.5 mg/kg oral, p < 0.05.

Like-named read-outs stand apart in the source and are kept apart here.

`N#C[C@@H]1C[C@@H]2C[C@@H]2N1C(=O)[C@@H](N)C12CC3CC(CC(O)(C3)C1)C2` [Sax, (S)-3-hydroxyadamantylglycine-L-cis-4,5-methanoprolinenitrile]: in series [1], the oral bioavailability entry was “good oral bioavailability”. The “concentration of Sax after incubation with liver microsomal enzyme” value in the series with liver microsomal enzyme (control group microsomes) worked out at 350000 ng/mL. Also, in the series with liver microsomal enzyme (depression group microsomes), the “concentration of Sax after incubation with liver microsomal enzyme” value came to 150000 ng/mL. The molecule further returned a concentration at 5 h in series [2] (GK, rat, 0.5 mg/kg, single plasma sample at 5 h after oral Sax (chromatogram, Fig. 3C), group not stated) of 3.05 ng/mL. In series [2] (setting [3]), the AUC(0-inf) was 67.1 ± 14.1 ng·h/mL, the peak level (Cmax) was 20.5 ± 4.61 ng/mL, the Tmax turned out to be 1.46 ± 0.38 h and the MRT last was 2.55 ± 0.32 h. Further, in series [2] (setting [3]), the half-life is 1.73 ± 0.43 h and the Vd/F turned out to be 21 ± 8.22 L. Besides, in series [2] (setting [4]), the AUC(0-inf) was 44.6 ± 15.5 ng·h/mL, the concentration peaked (Cmax) at 14.8 ± 6.03 ng/mL, the Tmax is 1.04 ± 0.25 h and the MRT last is 1.95 ± 0.57 h. Further, in series [2] (setting [4]), the half-life was 1.58 ± 0.59 h and the Vd/F came to 29.8 ± 14.2 L. Moreover, the CLz/F in series [2] (control group (diabetic GK rats), 0.5 mg/kg oral) stood at 7.35 ± 1.34 L/h. In series [2] (depression group (CUMS-induced, GK rats), 0.5 mg/kg oral), this molecule gave a CLz/F of 13.05 ± 6.30 L/h. In series [2] (setting [5]), the “decrease of area under curve (AUC0−∞) in the depression group” value was 33%, the “decrease of mean residence time (MRT0−t) in the depression group” value turned out to be 24%, the “decrease of peak concentration (Cmax) in the depression group” value worked out at 27% and the “decrease of peak time (Tmax) in the depression group” value is reported as 29%.

The AUC(0-inf) is the area under the concentration-time curve extrapolated to infinity. A higher AUC(0-inf) goes with more exposure. For orientation: Cmax means the peak of the concentration-time curve. The term Tmax denotes the time at which the peak concentration occurs.
